Test results as given in patent US20240383922A1, “KRAS Modulating Compounds” (Gilead Sciences, Inc., priority 2023, published 2024).
Read-outs that look alike come from different tables or passages of the source.

Assays:
[1] = system: cellular pERK in NCI-H441 (KRAS-G12V) cell-line; assay: Cell based pERK assay (HTRF), NCI-H441; settings: NCI-H441 (KRAS-G12V) cells, 2 hours incubation
Method: (§1) Compounds were tested in a 384-well assay format for their ability to inhibit cellular pERK in Kuramochi (WT KRAS), MIA-PaCa-2 (KRAS-G12C), ASPC-1 (KRAS G12D), and NCI-H441 (KRAS-G12V) cell-lines. Compounds were serially diluted (1:3) in DMSO. On day −1, 80 uL of cells were plated per well in the 384 well tissue-culture plates (Greiner: Cat #781080) to seed 5000 cells per wells of AsPC-1 or 7500 cells of MIA-PaCa-2, NCI-H441, and Kuramochi cell lines in RPMI (Corning: Cat #10-040-CM) with 10% fetal bovine serum (FBS) (HyClone: Cat #SH30071-03) and 1× penicillin-streptomycin-glutamate (PSG) (Corning: Cat #30-009-CI) for […] and Kuramochi cell lines and DMEM (Corning: Cat #15-018-CM) with […] and 1× PSG for MKA-PaCa-2 cell line. The plates were then incubated overnight at 37° C. and 5% CO2. On day 0, 400 nL of compound/well was added into the cell plates and mixed 5 times by pipetting using a Beckmann Biomek FX. The cell plates were then incubated for 2 hours at 37° C. and 5% CO2. HTRF Advanced Phospho-ERK1/2 ([…]) Detection Kits (PerkinElmer: Cat #64AERPEG) were used to prepare the lysis and detection solution according to manufacturer protocol. Following the 2 hour incubation, 70 μL of medium was aspirated from the plates and 10 uL of lysis and detection solution was added to the plates using a Biotek EL406 washer and dispenser. Plates were sealed and stored overnight at room temperature. HTRF ratio (665 nm/615 nm) was read by Envision multimode reader (PerkinElmer) the next day. The TR-FRET ratios were normalized to a positive (saturating concentration of known inhibitor) and negative (DMSO) control and plotted against the log of compound concentration. IC50 values were defined as the compound concentration that causes a […] in normalized signal and were calculated using a sigmoidal dose-response model to generate curve fits.

[2] = system: cellular pERK in ASPC-1 (KRAS G12D) cell-line; assay: Cell based pERK assay (HTRF), ASPC-1; settings: ASPC-1 (KRAS G12D) cells, 2 hours incubation
Method: as §1

[3] = system: cellular pERK in Kuramochi (WT KRAS) cell-line; assay: Cell based pERK assay (HTRF), Kuramochi; settings: Kuramochi (WT KRAS) cells, 2 hours incubation
Method: as §1

[4] = system: cellular pERK in MIA-PaCa-2 (KRAS-G12C) cell-line; assay: Cell based pERK assay (HTRF), MIA-PaCa-2; settings: MIA-PaCa-2 (KRAS-G12C) cells, 2 hours incubation, read-out: MIAPaCa2 pERK EC50
Method: as §1

SMILES	EC50 ([1]; Homo sapiens) [nM]	EC50 ([2]; Homo sapiens, ASPC1) [nM]	EC50 [3] [nM]	EC50 ([4]; Homo sapiens) [nM]	EC50 [1] [nM]	EC50 ([2]; read-out: AsPC1 pERK EC50) [nM]	EC50 [4] [nM]
C#Cc1c(F)ccc2cc(O)cc(-c3nc4c5c(nc(OC[C@@]67CCCN6C[C@H](F)C7)nc5c3F)N3CCC(O)CC[C@@H]3CC4)c12 (some centres unmarked) [Example 6-29]	452	741	46.3	23.8			
C#Cc1c(F)ccc2cc(N)cc(-c3cc4c5c(nc(OC[C@@]67CCCN6C[C@H](F)C7)nc5c3F)N3CCCOCC3CC4)c12 (some centres unmarked) [Example 3-2]	104	288	46.5	87.7			
C#Cc1c(F)ccc2cc(O)cc(-c3nc4c5c(nc(OC[C@@]67CCCN6C[C@H](F)C7)nc5c3F)N3CCCCC[C@H]3CC4)c12 [Example 12-1, 5-ethynyl-6-fluoro-4-((S)-1-fluoro-12-(((2R,7aS)-2-fluorotetrahydro-1H-pyrrolizin-7a(5H)-yl)methoxy)-4,5,5a,6,7,8,9,10-octahydro-3,10a,11,13-tetraazanaphtho[1,8-ab]heptalen-2-yl)naphthalen-2-ol]	916	931	401	682			
C#Cc1c(F)ccc2cc(N)cc(-c3nc4c5c(nc(OC[C@@]67CCCN6C[C@H](F)C7)nc5c3F)N3CCCOC[C@@H]3C[C@H]4C)c12 [Example 7-9]	16.9	54.9	7.23	9.04			
C#Cc1c(F)ccc2cc(O)cc(-c3nc4c5c(nc(OCC67CCCN6CCC7)nc5c3F)N3CCCOC[C@@H]3CC4)c12 [Example 6-11]	8.06	24.4	16.6	1.68			
C#Cc1c(F)ccc2cccc(-c3nc4c5c(nc(OC[C@@]67CCCN6C[C@H](F)C7)nc5c3F)N3CCCOC[C@@H]3CC4)c12 [Example 6-7]	825	> 1000	384	328			
C#Cc1c(F)c(F)cc2cc(N)cc(-c3nc4c5c(nc(OCC67CCCN6CCC7)nc5c3F)N3CCCOC[C@@H]3CC4)c12 [Example 23-3]	75.9	105	7.54	20.3			
CCc1c(F)ccc2cc(O)cc(-c3nc4c5c(nc(OC[C@@]67CCCN6C[C@H](F)C7)nc5c3F)N3CCCOCC3CC4)c12 (some centres unmarked) [Example 8-2]	21	23.6	8.04	13.8			
C#Cc1c(F)ccc2cc(O)cc(-c3nc4c5c(nc(OC[C@@]67CCCN6C[C@H](F)C7)nc5c3F)N3CC5(COCC3CC4)OCCO5)c12 (some centres unmarked) [Example 6-16]	> 1000	> 1000	78.5	265			
C#Cc1c(F)ccc2cc(O)cc(-c3nc4c5c(nc(OC[C@@]67CCCN6C[C@@H](F)C7)nc5c3F)N3CCCOC[C@@H]3CC4)c12 [Example 22-1, 5-ethynyl-6-fluoro-4-((S)-1-fluoro-12-(((2S,7aS)-2-fluorotetrahydro-1H-pyrrolizin-7a(5H)-yl)methoxy)-4,5,5a,6,9,10-hexahydro-8H-7-oxa-3,10a,11,13-tetraazanaphtho[1,8-ab]heptalen-2-yl)naphthalen-2-ol]	54.8	92.1	8.15	102			
C#Cc1c(F)ccc2cccc(-c3nc4c5c(nc(OC[C@@]67CCCN6[C@H](COC(=O)NCC)CC7)nc5c3F)N3CCCOC[C@@H]3CC4)c12 [Example 16-3]	12.7	14	5.23	2.76			
Oc1cc(-c2nc3c4c(nc(OC[C@@]56CCCN5C[C@H](F)C6)nc4c2F)N2CCCOC[C@@H]2CC3)c2c(Cl)cccc2c1 [Example 19-1, 5-chloro-4-((S)-1-fluoro-12-(((2R,7aS)-2-fluorotetrahydro-1H-pyrrolizin-7a(5H)-yl)methoxy)-4,5,5a,6,9,10-hexahydro-8H-7-oxa-3,10a,11,13-tetraazanaphtho[1,8-ab]heptalen-2-yl)naphthalen-2-ol]	> 1000	> 1000	582	> 1000			
C#Cc1c(F)ccc2cc(O)cc(-c3nc4c5c(nc(OC[C@@]67CCCN6[C@H](COC(=O)N(C)C)CC7)nc5c3F)N3CCCOC[C@@H]3CC4)c12 [Example 6-25]	4.57	9.84	17.9	3.87			
C#Cc1c(F)ccc2cc(N)cc(-c3nc4c5c(nc(OC[C@@]67CCCN6C[C@H](F)C7)nc5c3F)N3CCCOC[C@@H]3C[C@@H]4C)c12 [Example 7-10]	> 535	> 697	208	218			
C#Cc1c(F)ccc2cc(O)cc(-c3nc4c5c(nc(OC[C@@]67CCCN6C[C@H](F)C7)nc5c3F)N3CCOCC[C@@H]3CCC4)c12 (single isomer, unassigned) [Example 10-2]	> 1000	> 1000	340	248			

The next molecules have a lower EC50 [3] than those just listed; values first:

EC50 ([1]; Homo sapiens) [nM]	EC50 ([2]; Homo sapiens, ASPC1) [nM]	EC50 [3] [nM]	EC50 ([4]; Homo sapiens) [nM]	EC50 [1] [nM]	EC50 ([2]; read-out: AsPC1 pERK EC50) [nM]	EC50 [4] [nM]	SMILES
3.13	14.4	0.95	8.03				C#Cc1c(F)c(F)cc2cc(N)cc(-c3nc4c5c(nc(OC[C@@]67CCCN6C[C@H](F)C7)nc5c3F)N3CCCOC[C@@H]3CC4)c12 [Example 23-1, 5-ethynyl-6,7-difluoro-4-((S)-1-fluoro-12-(((2R,7aS)-2-fluorotetrahydro-1H-pyrrolizin-7a(5H)-yl)methoxy)-4,5,5a,6,9,10-hexahydro-8H-7-oxa-3,10a,11,13-tetraazanaphtho[1,8-ab]heptalen-2-yl)naphthalen-2-amine]
4.04	1.19	2.61	1.59				C#Cc1c(F)c(F)cc2cc(O)cc(-c3nc4c5c(nc(OC[C@@]67CCCN6C[C@H](F)C7)nc5c3F)N3CCCOC[C@@H]3CC4)c12 [Example 6-26]
		3.89		14.7	25.1	12.6	C#Cc1c(F)ccc2cc(O)cc(-c3nc4c5c(nc(OC[C@@]67CCCN6C[C@H](F)C7)nc5c3F)N3CCCC[C@H]3CC4)c12 [Example 1-1, 5-ethynyl-6-fluoro-4-((S)-1-fluoro-11-(((2R,7aS)-2-fluorotetrahydro-1H-pyrrolizin-7a(5H)-yl)methoxy)-5,5a,6,7,8,9-hexahydro-4H-3,9a,10,12-tetraazabenzo[4,5]cyclohepta[1,2,3-de]naphthalen-2-yl)naphthalen-2-ol]
		2.64		8.01	1.69	0.82	C#Cc1c(F)ccc2cc(O)cc(-c3c(F)c4c5c(nc(OC[C@@]67CCCN6C[C@H](F)C7)nc5c3F)N3CCCOC[C@@H]3CC4)c12 (atropisomer, axis not shown) [Example 24-2, 4-((11R,14aS)-10,12-difluoro-8-(((2R,7aS)-2-fluorotetrahydro-1H-pyrrolizin-7a(5H)-yl)methoxy)-1,4,5,13,14,14a-hexahydro-3H-[1,4]oxazepino[4′,3′:1,7]azepino[2,3,4-de]quinazolin-11-yl)-5-ethynyl-6-fluoronaphthalen-2-ol]
5.1	10.8	2.29	1.3				C#Cc1c(F)ccc2cc(O)cc(-c3nc4c5c(nc(OC[C@@]67CCCN6C[C@H](F)C7)nc5c3F)N3CC(F)(F)COC[C@@H]3CC4)c12 (single isomer, unassigned) [Example 17-2]
2.09	3.74	4.46	1.01				C#Cc1c(F)ccc2cc(O)cc(-c3nc4c5c(nc(OC[C@@]67CCCN6C[C@H](F)C7)nc5c3F)N3CCCOCC3CC4)c12 (some centres unmarked) [Example 6-2]
1.15	1.18	4.01	0.47				C#Cc1c(F)ccc2cc(O)cc(-c3nc4c5c(nc(OC[C@@]67CCCN6C[C@H](F)C7)nc5c3F)N3CCCOC[C@@H]3C=C4)c12 [Example 6-19]
1.06	1.49	1.63	0.18				C#Cc1c(F)ccc2cc(O)cc(-c3nc4c5c(nc(OC[C@@]67CCCN6CC(=C)C7)nc5c3F)N3CCCOCC3CC4)c12 (some centres unmarked) [Example 22-2]
